Reference: patent publication US20190231771A1, “METHODS FOR TREATMENT AND PREVENTION OF OPIOID INDUCED CONSTIPATION USING ORAL COMPOSITIONS OF METHYLNALTREXONE” (Salix Pharmaceuticals, Ltd., priority 2011, published 2019)
Where two headings read alike, the source gives them in different places.

Experiments:
[1] = Study C: single and multiple dose pharmacokinetics of MNTX and metabolites, MNTX 450 mg PO x 7 days; type: in vivo, human; settings: for bioavailability: oral, MNTX tablets 450 mg, cross-study AUCinf comparison; for bioavailability / half-life / AUC(0-inf) / AUC(0-t) / Cmax: 450 mg; for half-life / AUC(0-inf) / AUC(0-t) / Cmax: po; for AUC(0-t): read-out: AUC0-24; for Cmax: read-out: Cmax
Procedure: (§1) Presented herein is a clinical pharmacokinetics study, Study C, as well as Studies A and B. Study A investigated the single and multiple dose pharmacokinetics of methylnaltrexone (MNTX) and its metabolites (M2: methylnaltrexone sulfate; M4: 6α-methylnaltrexol; and M5: 6β-methylnaltrexol) following the subcutaneous administration of 12 mg methylnaltrexone. In Study B, the single and multiple dose pharmacokinetics of methylnaltrexone (MNTX) and its metabolites (M2, M4, and M5) were examined following a 20-minute short intravenous infusion of 24 mg of methylnaltrexone (MNTX).
In addition, the urinary elimination of MNTX was characterized.
(§2) Pharmacokinetic parameters included Cmax, AUCt, AUCinf, tmax, t1/2, % Re24, accumulation factor (R) as defined below and metabolite/parent drug ratio.
(§3) R=Accumulation Factor(based on AUC0-24(ng·h/mL):Day 7 AUC AUC0-24/Day 1 AUC0-24
(§4) Metabolite-Parent Drug ratio(based on ng·h/mL)(%)=100*(Metabolite AUC24/MNTX AUC24)
(§5) Note: AUCinf was used in place of AUC AUC0-24 for R and Metabolite-Parent Drug ratio computations following IV administration.

[2] = system: subjects with chronic non-malignant pain who have Opioid Induced Constipation (OIC); experiment: Phase 3 randomized double-blind placebo-controlled study of Oral Methylnaltrexone for OIC; type: in vivo, human
Procedure: A phase 3, multicenter, randomized, double-blind, placebo-controlled, parallel-group study of OM for the treatment of OIC in approximately 802 subjects with chronic non-malignant pain was conducted.
Constipation due to opioid use during the screening period: Constipation is defined as <3 Rescue-Free Bowel Movements (RFBMs) per week on average (no laxative use within 24 hours prior to bowel movement) that were associated with 1 or more of the following (based on subject's diary report): • a. A Bristol Stool Form Scale type 1 or 2 for at least 25% of the rescue-free bowel movements. • b. Straining during at least 25% of the rescue-free bowel movements. • c. A sensation of incomplete evacuation after at least 25% of the rescue-free bowel movements.
Subjects who remained eligible at the baseline visit (day 1) were randomly assigned to either OM tablet formulation 150 mg, 300 mg, 450 mg, or placebo initially in a 1:1:1:1 allocation ratio. Subjects were required to take three tablets per day, first thing in the morning on an empty stomach (prior to breakfast). Subjects were instructed to swallow the tablets whole and never to chew, divide, or crush them and wait at least one half hour before ingesting any food. Subjects participated in the study for up to 84 days. The first 28 days were once daily dosing; the remaining 56 days were dosing as needed (PRN). Dosing remained double-blind throughout the 12 week period (84 days). The 84 day treatment period were followed by a 14-day post-treatment follow-up period (±2 days). Enrollment continued until a total of approximately 802 subjects have been randomized and dosed.
At the baseline visit, subjects were randomly assigned to either OM or placebo. Subjects who met all inclusion and no exclusion criteria at the baseline visit (day 1) received study medication. All doses were to be taken in the morning prior to breakfast [The first dose administered at the baseline visit could have been taken after Noon (12:00 pm)] and subjects were instructed to wait at least one half hour before ingesting any food. Subjects participated in the study for up to 84 days: the first 28 days were double-blind once daily dosing; the remaining 56 days were double-blind PRN dosing.
The primary efficacy endpoint of this Phase 3 study was the average proportion of rescue-free laxation responses per subject within 4 hours of all doses during the first four weeks of dosing. The key secondary efficacy endpoints in hierarchical order were:
1. Change in weekly number of RFBM from baseline during Weeks 1 to 4
2. Response (responder/non-responder) to study drug during Weeks 1 to 4, where responder was defined as having ≥3 RFBM/week, with at least 1 RFBM/week increase over baseline, for at least 3 out of the first 4 weeks.
The primary efficacy endpoint was the average proportion of rescue-free laxation responses per subject within 4 hours of all doses during the first 4 weeks of dosing.
The two key secondary efficacy endpoints in hierarchical order were: • 1. Change in weekly number of RFBMs from baseline over the entire first 4 weeks (28 days) of dosing. • 2. Response (responder/non-responder) to study drug during Weeks 1 to 4, where responder is defined as having […], with at least 1 RFBM/week increase over baseline, for at least 3 out of the first 4 weeks. […]

[3] = rats; cited from earlier work
[4] = Study B: single and multiple dose pharmacokinetics after 20-minute intravenous infusion of 24 mg methylnaltrexone; type: in vivo, human; settings: 24 mg IV infusion; for AUC(0-inf) / Cmax: iv, 24 mg; for Cmax: read-out: Cmax
Procedure: as §1, §2, §3, §4, §5

[5] = Yuan et al. 2005 J Clin Pharm 45:538-546; cited from earlier work
[6] = cited from earlier work
[7] = human, plasma, 450 mg Tablets oral, Day 1, mean
[8] = human, plasma, 450 mg Tablets oral, Day 7, mean
[9] = 150 mg, 300 mg and 450 mg daily oral vs placebo
[10] = orally administered MNTX, other studies

C[N@+]1(CC2CC2)CC[C@]23c4c5ccc(O)c4O[C@H]2C(=O)CC[C@@]3(O)[C@H]1C5.[Br-] [MNTX, (R)—N-(cyclopropylmethyl) noroxymorphone methobromide]
R (PO), accumulation factor ([1]; 450 mg Tablets oral, AUC0-24 on Day 7/AUC0-24 on Day 1): 1.20
bioavailability ([1]; human, plasma, multiple dose, read-out: bioavailability relative to IV multiple dose administration): 5.8%
bioavailability ([1]; human, plasma, multiple dose, read-out: bioavailability relative to SC multiple dose administration): 4.8%
bioavailability ([1]; human, plasma, single dose, read-out: absolute bioavailability (relative to IV infusion)): 4.24%
bioavailability ([1]; human, plasma, single dose, read-out: bioavailability relative to SC injection): 3.7%
half-life ([1]; human, plasma, 450 mg Tablets oral, Day 1, harmonic mean): 8.8 h
AUC(0-inf) [1, 7]: 315 ng·h/mL
AUC(0-t) [1, 7]: 280 ng·h/mL
Cmax [1, 7]: 47 ng/mL
half-life ([1]; human, plasma, 450 mg Tablets oral, Day 7, harmonic mean): 19.2 h
AUC(0-inf) [1, 8]: 404 ng·h/mL
AUC(0-t) [1, 8]: 309 ng·h/mL
Cmax [1, 8]: 45.5 ng/mL
Tmax ([1]; human, plasma, 450 mg Tablets oral, Day 1, median, read-out: Tmax): 2 h
primary efficacy endpoint: average proportion of rescue free bowel movements per subject within 4 hours of all doses during the first 4 weeks of dosing [2, 9]: demonstrate efficacy
secondary efficacy endpoints: change in weekly number of RFBMs from baseline weeks 1-4; response to study drug [2, 9]: further demonstrate efficacy
adverse events ([2]; dosages of 150 mg, 300 mg and 450 mg): did not result in adverse events
proportion of subjects with rescue free bowel movements within 4 hours of the first dose ([2]; first dose of study drug): further confirmed efficacy
laxation effects, fasted compared to non-fasted subjects ([2]; phase 3 study, following the first dose of study drug): increased in fasted subjects compared to non-fasted subjects
estimated bioavailability after oral administration [3]: less than 1%
R (IV), accumulation factor ([4]; AUCinf used): 1.17
AUC(0-inf) ([4]; human, in vivo, Day 1, mean): 396 ng·h/mL
Cmax ([4]; human, in vivo, Day 1, mean): 533 ng/mL
AUC(0-inf) ([4]; human, in vivo, Day 7, mean): 375 ng·h/mL
Cmax ([4]; human, in vivo, Day 7, mean): 520 ng/mL
half-life ([4]; human, in vivo, day not given): 10.8 h
AUC(0-t) ([4]; human, in vivo, day not given, mean, read-out: AUC0-6): 326 ng·h/mL
dose recovered in urine following IV administration [5]: 31.5%-49.6%
bioavailability (in words) [6, 10]: low bioavailability
plasma protein binding (in words) [6, 10]: low plasma protein binding
tissue distribution (in words) [6, 10]: limited tissue distribution outside the GI tract
increase of systemic absorption by fasting ([6]; prior study): approximately 25%
